Assay results reported in US10752690B2, “Biologically active molecule conjugates, reagents and methods of manufacture, and therapeutic uses” (REGENERON PHARMACEUTICALS, INC., priority 2014, dated 2020).
Residues, ends and D or L forms follow the SMILES beside them.

How the values were obtained:
Format in all cases: cell-based
HEK293 = experiment: In vitro cytotoxicity assay (CCK8 cell viability), native HEK293 cells (no target expressed); details: Homo sapiens, HEK293, 72 h
Method: (§1) Cells were seeded in Nunclon Delta Surface 96 well plates at 1000 (HEK293 and HEK293/PRLR) or 6000 (T47D) cells per well, and cells were grown overnight in complete growth media. For cell viability curves, serially diluted conjugates or free representative payloads were added to the cells at final concentrations ranging from 100 nM to 5 pM and incubated for 3 days. To measure viability, cells were incubated with CCK8 (Dojindo) for the final 1-3 hours and the absorbance at 450 nm (OD450) was determined on a Victor X4 (PerkinElmer). Background OD450 levels (CCK8) from digitonin ([…]) treated cells were subtracted from all wells and viability is expressed as a percentage of the untreated controls. IC50 values were determined from a four-parameter logistic equation over a 10-point response curve (GraphPad Prism). Maytansinoid conjugate curves and IC50 values are corrected for payload equivalents based on the UV DAR value. For the auristatin (MMAF) conjugate, the IC50 values are assigned a DAR of 1 (i.e., equal to antibody concentration) since a good estimate cannot be obtained by UV or mass spectrometry.

HEK293/hPRLR = experiment: In vitro cytotoxicity assay (CCK8 cell viability), engineered HEK293/hPRLR cells; details: Homo sapiens, HEK293, 72 h
Method: as §1

T47D = experiment: In vitro cytotoxicity assay (CCK8 cell viability), endogenous cell line T47D; details: Homo sapiens, 72 h
Method: as §1

Measured: IC50

CC[C@H](C)[C@@H]([C@@H](CC(=O)N1CCC[C@H]1[C@H](OC)[C@@H](C)C(=O)N[C@@H](Cc1ccccc1)C(=O)O)OC)N(C)C(=O)[C@@H](NC(=O)[C@@H](NC)C(C)C)C(C)C [compound 27, Monomethyl Auristatin F] (HELM PEPTIDE1{[meV].V.[CC[C@H](C)[C@@H]([C@@H](CC(=O)[*:2])OC)N(C)[*:1]].[CO[C@H]([C@@H](C)C(=O)[*:2])[C@@H]1CCCN1[*:1]].F}$$$$V2.0)
> 100 nM: all assays above
